The subject of series [1] is DLD-1 colon xenografts. As to conditions: positive control. The procedure: Female NCr nude mice were injected intravenously (q7dx3) via the lateral tail vein on days indicated by an asterisk (*). […] Irinotecan (⋄) was prepared in saline and injected iv (q4dx3) at a dose of 90 mg/kg/dose. Drug-to-lipid ratio was 0.3/1 (w/w). Data points represent median tumor volume (n=6).
(§1) The anti-tumor activity of multiple (q7d3) dose schedules of liposomal vinorelbine was evaluated in several human xenograft tumor models. The goal of this series of studies was to identify the benefits of encapsulation by evaluating a series of doses and determining the therapeutic index in several xenograft models. Models were selected based on the following criteria: (1) activity in the single dose studies, (2) a comprehensive literature review of vinca alkaloid efficacy, (3) a desire to include at least 2-3 models that represent the clinical use of vinorelbine, and (4) a desire to include models with a range of sensitivity to vinorelbine so that improvements resulting from the use of the liposome formulation might be identified. Based on these criteria, MX-1 and MDA-MB-435 breast models, the NCl-H460 NSCLC model and the HT-29 and DLD-1 colon models were chosen.
(§2) Therapeutic index (TI) is a parameter that quantifies the “safety factor” of a particular therapy. TI is a ratio of a toxicity parameter and a biological activity parameter. Therefore, a higher ratio represents a greater potential margin of safety. For these studies, TI is defined as follows: […]
(§3) The minimal effective dose (MED) was set according to NCl activity criteria as the dose resulting in an optimal % T/C of 40. This information was derived from Table 7.

Series [2] relates to NCl H460 non small cell lung xenografts. The series can be described thus: Multiple dose (q7dx3) anti-tumor activity, NCl H460 non small cell lung xenograft. As to conditions: positive control. The procedure: Female NCr nude mice were injected intravenously (q7dx3, beginning day 7) via the lateral tail vein. […] Mitomycin C (⋄) was prepared in saline and injected iv (q4dx3) at a dose of 3 mg/kg/dose. Drug-to-lipid ratio was 0.3/1 (w/w). Data points represent median tumor volume (n=6).
as §1, §2, §3

For series [3], the system named is MDA-MB-435 breast xenografts. As to conditions: positive control. The procedure:
Female NCr nude mice were injected intravenously (q7dx3, beginning day 15) via the lateral tail vein. […] Paclitaxel (⋄) was prepared in […]/12.5% ethanol/75% saline and injected iv (q1dx5) at a dose of 15 mg/kg/dose. Drug-to-lipid ratio was 0.3/1 (w/w). Data points represent median tumor volume (n=6).
as §1, §2, §3

The conditions of series [4]: adults, cited from earlier work.

On to `CCc1c2c(nc3ccc(OC(=O)N4CCC(N5CCCCC5)CC4)cc13)-c1cc3c(c(=O)n1C2)COC(=O)[C@]3(O)CC` [Irinotecan], for which, in series [1] (90 mg/kg/dose iv q4dx3), the “% T/C (optimal % T/C following final treatment)” value is recorded as 11%; the “DRD (drug related deaths, n = 6)” value came to 0; the “NCI Score” value is 1; the “T-C (tumor growth delay to 1000 mm^3)” value is 17.2. Moreover, the “TF (tumor free animals at the end of study)” value in series [1] (90 mg/kg/dose iv q4dx3, n=6) was 0.
As for `CO[C@@]12[C@H](COC(N)=O)C3=C(C(=O)C(C)=C(N)C3=O)N1C[C@@H]1N[C@@H]12` [Mitomycin C], in series [2] (3 mg/kg/dose iv q4dx3), the “% T/C (optimal % T/C following final treatment)” value was 5%; the “DRD (drug related deaths, n = 6)” value was determined as 0; the “NCI Score” value turned out to be 1; the “T-C (tumor growth delay to 1000 mm^3)” value amounted to 22.2. Also, the “TF (tumor free animals at the end of study)” value in series [2] (3 mg/kg/dose iv q4dx3, n=6) is 0.
`CC(=O)O[C@H]1C(=O)[C@@]2(C)[C@H]([C@H](OC(=O)c3ccccc3)[C@]3(O)C[C@H](OC(=O)[C@H](O)[C@@H](NC(=O)c4ccccc4)c4ccccc4)C(C)=C1C3(C)C)[C@]1(OC(C)=O)CO[C@@H]1C[C@@H]2O` [Paclitaxel]: in series [3] (15 mg/kg/dose iv q1dx5), the “% T/C (optimal % T/C following final treatment)” value is −55%, the “NCI Score” value is 3 and the “T-C (tumor growth delay to 1000 mm^3)” value is given as 36.9. Besides, in series [3] (15 mg/kg/dose iv q1dx5, n=6), the “TF (tumor free animals at the end of study)” value turned out to be 0.
Turning to `CC[C@]1(O)C[C@H]2CN(CCc3c([nH]c4ccccc34)[C@@](C(=O)OC)(c3cc4c(cc3OC)N(C=O)[C@H]3[C@@](O)(C(=O)OC)[C@H](OC(C)=O)[C@]5(CC)C=CCN6CC[C@]43[C@@H]65)C2)C1` [free vincristine, 22-oxovincaleukoblastine], the “total dose at which peripheral neuropathic effects usually begin” value in series [4] (2-3 doses) was 5 to 6 mg. Besides, the “cumulative dose after which peripheral neuropathic effects are generally significant” value in series [4] (8-10 doses) was 15 to 20 mg.

Source of the values: patent publication US20040071768A1, “Compositions and methods for treating cancer” (Inex Pharmaceuticals Corporation, priority 1999, published 2004).
